Results as given in ChEMBL document CHEMBL1201862, “PubChem BioAssay data set” (2004).
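Grown in 96-well plates, cells were treated for 48 hours with each compound at five concentrations. Insufficient inhibition: endpoint recorded as highest concentration tested. GI50 = concentration required for 50% inhibition of growth.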 The source made the active and inactive calls. Rule as the data show it: active = GI50 up to about 1.1 µM and inactive = higher.

Experiments:
Experiment in all cases: NCI anticancer screen, dose series, 48 h
CCRF-CEM = test system: CCRF-CEM
A498 = test system: A498
M14 = test system: M14
MOLT-4 = test system: MOLT-4
SK-OV-3 = test system: SK-OV-3
SF-539 = test system: SF-539
Malme-3M = test system: Malme-3M
HCT-116 = test system: HCT-116
UACC-257 = test system: UACC-257
UACC-62 = test system: UACC-62
HCC 2998 = test system: HCC 2998
EKVX = test system: EKVX
MCF7 = test system: MCF7
OVCAR-4 = test system: OVCAR-4
RXF 393 = test system: RXF 393
SF-268 = test system: SF-268
OVCAR-8 = test system: OVCAR-8
OVCAR-3 = test system: OVCAR-3
NCI-H23 = test system: NCI-H23
786-0 = test system: 786-0
COLO 205 = test system: COLO 205
NCI/ADR-RES = test system: NCI/ADR-RES
HL-60 = test system: HL-60
A549 = test system: A549
Hs-578T = test system: Hs-578T
SK-MEL-5 = test system: SK-MEL-5
KM12 = test system: KM12
SNB-75 = test system: SNB-75
T47D = test system: T47D
HT-29 = test system: HT-29
HOP-92 = test system: HOP-92
IGROV-1 = test system: IGROV-1
ACHN = test system: ACHN
DU-145 = test system: DU-145
HOP-62 = test system: HOP-62
RPMI-8226 = test system: RPMI-8226
NCI-H522 = test system: NCI-H522
MDA-MB-435 = test system: MDA-MB-435
TK-10 = test system: TK-10
SK-MEL-2 = test system: SK-MEL-2
SNB-19 = test system: SNB-19
NCI-H226 = test system: NCI-H226
LOX IMVI = test system: LOX IMVI
SN12C = test system: SN12C
UO-31 = test system: UO-31
SW-620 = test system: SW-620
SF-295 = test system: SF-295
HCT-15 = test system: HCT-15
MDA-N = test system: MDA-N
BT-549 = test system: BT-549
MDA-MB-231 = test system: MDA-MB-231
CAKI-1 = test system: CAKI-1
SR = test system: SR
OVCAR-5 = test system: OVCAR-5
SK-MEL-28 = test system: SK-MEL-28
NCI-H460 = test system: NCI-H460
K562 = test system: K562
U-251 = test system: U-251
PC-3 = test system: PC-3

## COc1ccc(C2=C(Cl)c3cc(OC)c(OC)cc3C2=O)cc1OC
CCRF-CEM
  GI50: 3.93 µM (inactive)
A498
  GI50: 18.1 µM (inactive)
M14
  GI50: 4.84 µM (inactive)
MOLT-4
  GI50: 3.63 µM (inactive)
SK-OV-3
  GI50: 21 µM (inactive)
SF-539
  GI50: 21.3 µM (inactive)
Malme-3M
  GI50: 13.2 µM (inactive)
HCT-116
  GI50: 4.22 µM (inactive)
UACC-257
  GI50: 4.28 µM (inactive)
UACC-62
  GI50: 15.4 µM (inactive)
HCC 2998
  GI50: 22.6 µM (inactive)
EKVX
  GI50: 20.1 µM (inactive)
MCF7
  GI50: 13.1 µM (inactive)
OVCAR-4
  GI50: 12.1 µM (inactive)
RXF 393
  GI50: 5.7 µM (inactive)
SF-268
  GI50: 18.9 µM (inactive)
OVCAR-8
  GI50: 16.9 µM (inactive)
OVCAR-3
  GI50: 1.77 µM (inactive)
NCI-H23
  GI50: 12 µM (inactive)
786-0
  GI50: 3.43 µM (inactive)
COLO 205
  GI50: 3.16 µM (inactive)
NCI/ADR-RES
  GI50: 21.9 µM (inactive)
HL-60
  GI50: 1.8 µM (inactive)
A549
  GI50: 36.9 µM (inactive)
Hs-578T
  GI50: 30 µM (inactive)
SK-MEL-5
  GI50: 15.9 µM (inactive)
KM12
  GI50: 17.4 µM (inactive)
SNB-75
  GI50: 61 µM (inactive)
T47D
  GI50: 2.95 µM (inactive)
HT-29
  GI50: 5.38 µM (inactive)
HOP-92
  GI50: 1.8 µM (inactive)
IGROV-1
  GI50: 17.5 µM (inactive)
ACHN
  GI50: 5.57 µM (inactive)
DU-145
  GI50: 18.7 µM (inactive)
HOP-62
  GI50: 15.3 µM (inactive)
RPMI-8226
  GI50: 18.1 µM (inactive)
NCI-H522
  GI50: 12.6 µM (inactive)
MDA-MB-435
  GI50: 15.9 µM (inactive)
TK-10
  GI50: 13 µM (inactive)
SK-MEL-2
  GI50: 14.4 µM (inactive)
SNB-19
  GI50: > 100 µM (inactive)
NCI-H226
  GI50: 38.7 µM (inactive)
LOX IMVI
  GI50: 12 µM (inactive)
SN12C
  GI50: 18 µM (inactive)
UO-31
  GI50: 16.6 µM (inactive)
SW-620
  GI50: 12.7 µM (inactive)
SF-295
  GI50: > 100 µM (inactive)
HCT-15
  GI50: 6.9 µM
MDA-N
  GI50: 18.5 µM (inactive)
BT-549
  GI50: 16.1 µM (inactive)
MDA-MB-231
  GI50: 16.4 µM (inactive)
CAKI-1
  GI50: 2.28 µM (inactive)
SR
  GI50: 6.11 µM (inactive)
OVCAR-5
  GI50: 19.8 µM (inactive)

## Nc1nc(Cl)c(N)c(NCC2(CO)CC(CCCc3ccccc3)C2)n1 (stereo not drawn)
CCRF-CEM
  GI50: 0.0451 µM (active)
A498
  GI50: 15.5 µM (inactive)
M14
  GI50: 22 µM (inactive)
MOLT-4
  GI50: 5.07 µM (inactive)
SK-OV-3
  GI50: > 100 µM (inactive)
SK-MEL-28
  GI50: 47.1 µM (inactive)
SF-539
  GI50: 30 µM (inactive)
Malme-3M
  GI50: 1.26 µM (inactive)
HCT-116
  GI50: 0.495 µM (active)
UACC-257
  GI50: 7.67 µM (inactive)
UACC-62
  GI50: 24.1 µM (inactive)
HCC 2998
  GI50: 38.2 µM (inactive)
EKVX
  GI50: 0.223 µM (active)
MCF7
  GI50: 8.02 µM (inactive)
OVCAR-4
  GI50: > 33.7 µM (inactive)
NCI-H460
  GI50: 33.7 µM (inactive)
SF-268
  GI50: 23 µM (inactive)
OVCAR-3
  GI50: 19.1 µM (inactive)
786-0
  GI50: 22.7 µM (inactive)
COLO 205
  GI50: 16 µM (inactive)
K562
  GI50: 10.8 µM (inactive)
HL-60
  GI50: 0.117 µM (active)
A549
  GI50: 15.5 µM (inactive)
Hs-578T
  GI50: 36.7 µM (inactive)
KM12
  GI50: 21.5 µM (inactive)
SNB-75
  GI50: 20.4 µM (inactive)
T47D
  GI50: 5.27 µM (inactive)
HOP-92
  GI50: 51.1 µM (inactive)
IGROV-1
  GI50: 21.6 µM (inactive)
ACHN
  GI50: 35.6 µM (inactive)
DU-145
  GI50: 68.7 µM (inactive)
HOP-62
  GI50: 59.2 µM (inactive)
U-251
  GI50: 34.3 µM (inactive)
NCI-H522
  GI50: 0.121 µM (active)
MDA-MB-435
  GI50: 11.6 µM (inactive)
TK-10
  GI50: 56.2 µM (inactive)
SK-MEL-2
  GI50: 0.137 µM (active)
SNB-19
  GI50: > 55.5 µM (inactive)
NCI-H226
  GI50: 2.91 µM (inactive)
LOX IMVI
  GI50: 16.7 µM (inactive)
SN12C
  GI50: 62.7 µM (inactive)
UO-31
  GI50: 12.9 µM (inactive)
SW-620
  GI50: 40.1 µM (inactive)
SF-295
  GI50: 14 µM (inactive)
HCT-15
  GI50: 51.5 µM
MDA-N
  GI50: 19.3 µM (inactive)
BT-549
  GI50: 15.5 µM (inactive)
MDA-MB-231
  GI50: 41.5 µM (inactive)
CAKI-1
  GI50: 34.8 µM (inactive)
PC-3
  GI50: 17.9 µM (inactive)
SR
  GI50: 23.6 µM (inactive)
OVCAR-5
  GI50: > 100 µM (inactive)

## CC(C)(C)OC(=O)CN1CCNCCN(CC(=O)OC(C)(C)C)CC1
CCRF-CEM
  GI50: > 100 µM (inactive)
A498
  GI50: > 100 µM (inactive)
M14
  GI50: > 100 µM (inactive)
MOLT-4
  GI50: > 100 µM (inactive)
SK-OV-3
  GI50: > 100 µM (inactive)
SF-539
  GI50: > 100 µM (inactive)
Malme-3M
  GI50: 0.731 µM (active)
HCT-116
  GI50: > 100 µM (inactive)
UACC-257
  GI50: > 100 µM (inactive)
UACC-62
  GI50: > 100 µM (inactive)
HCC 2998
  GI50: 40.7 µM (inactive)
EKVX
  GI50: > 100 µM (inactive)
MCF7
  GI50: > 100 µM (inactive)
OVCAR-4
  GI50: > 100 µM (inactive)
NCI-H460
  GI50: > 100 µM (inactive)
OVCAR-8
  GI50: > 100 µM (inactive)
OVCAR-3
  GI50: > 100 µM (inactive)
786-0
  GI50: > 100 µM (inactive)
COLO 205
  GI50: > 100 µM (inactive)
NCI/ADR-RES
  GI50: > 100 µM (inactive)
K562
  GI50: 54.5 µM (inactive)
HL-60
  GI50: 19.2 µM (inactive)
A549
  GI50: > 100 µM (inactive)
Hs-578T
  GI50: > 100 µM (inactive)
SK-MEL-5
  GI50: > 100 µM (inactive)
KM12
  GI50: > 100 µM (inactive)
SNB-75
  GI50: 12.8 µM (inactive)
T47D
  GI50: > 100 µM (inactive)
HT-29
  GI50: 44.3 µM (inactive)
HOP-92
  GI50: > 100 µM (inactive)
IGROV-1
  GI50: > 100 µM (inactive)
ACHN
  GI50: > 100 µM (inactive)
DU-145
  GI50: > 100 µM (inactive)
HOP-62
  GI50: > 100 µM (inactive)
RPMI-8226
  GI50: > 100 µM (inactive)
NCI-H522
  GI50: 56.9 µM (inactive)
TK-10
  GI50: > 100 µM (inactive)
SK-MEL-2
  GI50: > 100 µM (inactive)
SNB-19
  GI50: > 100 µM (inactive)
NCI-H226
  GI50: > 100 µM (inactive)
LOX IMVI
  GI50: > 100 µM (inactive)
SN12C
  GI50: > 100 µM (inactive)
UO-31
  GI50: > 100 µM (inactive)
SF-295
  GI50: > 100 µM (inactive)
HCT-15
  GI50: > 100 µM
MDA-N
  GI50: > 100 µM (inactive)
BT-549
  GI50: > 100 µM (inactive)
MDA-MB-231
  GI50: > 100 µM (inactive)
CAKI-1
  GI50: > 100 µM (inactive)
PC-3
  GI50: > 100 µM (inactive)
SR
  GI50: > 100 µM (inactive)
OVCAR-5
  GI50: > 100 µM (inactive)
